Measurements from patent publication US11427567B2, “Imidazolyl pyrimidinylamine compounds as CDK2 inhibitors” (Incyte Corporation, priority 2019, dated 2022).

Target: CDK2/Cyclin E1 (Homo sapiens (Human), UniProt P24941)
Assay: CDK2/Cyclin E1 HTRF enzyme activity assay (Example A)
Type: biochemical
Conditions: 1 mM ATP
Protocol: Assays were conducted in white 384-well polystyrene plates in a final reaction volume of 8 μL. […] HTRF signals were read after 1 hour at room temperature on a PHERAstar FS plate reader (BMG Labtech). Data was analyzed with IDBS XLFit and GraphPad Prism 5.0 software using a three or four parameter dose response curve to determine IC50 for each compound.

IC50, ≤ 50 nM:
CS(=O)(=O)N1CCC(Nc2ncc(C(F)(F)F)c(-c3cn(-c4cccc(-c5cccnc5)c4Cl)cn3)n2)CC1 [Example 97, 4-(1-(2-chloro-3-(Pyridin-3-yl)phenyl)-1H-imidazol-4-yl)-N-(1-(methylsulfonyl)piperidin-4-yl)-5-(trifluoromethyl) pyrimidin-2-amine]
CC(C)(O)Cn1cnc(-c2nc(N[C@@H]3CCN(S(C)(=O)=O)C[C@H]3F)ncc2C(F)(F)F)c1 [Example 326, 1-(4-(2-(((3R,4R)-3-Fluoro-1-(methylsulfonyl)piperidin-4-yl)amino)-5-(trifluoromethyl)pyrimidin-4-yl)-1H-imidazol-1-yl)-2-methylpropan-2-ol]
CS(=O)(=O)N1CCC(Nc2ncc(C(F)(F)F)c(-c3cn(-c4cccc(CNC5CC5)c4Cl)cn3)n2)CC1 [Example 81, 4-(1-(2-Chloro-3-((cyclopropylamino)methyl)phenyl)-1H-imidazol-4-yl)-N-(1-(methylsulfonyl)piperidin-4-yl)-5-(trifluoromethyl)pyrimidin-2-amine]
CCN(CC)C1CCN(c2ccc(-n3cc(-c4nc(NC5CCN(S(C)(=O)=O)CC5)ncc4C(F)(F)F)nc3C)c(F)c2)CC1 [Example 413, 4-(1-(4-(4-(Diethylamino)piperidin-1-yl)-2-fluorophenyl)-2-methyl-1H-imidazol-4-yl)-N-(1-(methylsulfonyl)piperidin-4-yl)-5-(trifluoromethyl)pyrimidin-2-amine]
CC(C)(O)Cn1cnc(-c2nc(NC3CCN(S(=O)(=O)c4ccccn4)CC3)ncc2C(F)(F)F)c1 [Example 338, 2-Methyl-1-(4-(2-((1-(pyridin-2-ylsulfonyl)piperidin-4-yl)amino)-5-(trifluoromethyl)pyrimidin-4-yl)-1H-imidazol-1-yl)propan-2-ol]
Cc1nc(-c2nc(NC3CCN(S(C)(=O)=O)CC3)ncc2C(F)(F)F)cn1-c1ccc(N(C)CCO)cc1F [Example 113, 2-((3-Fluoro-4-(2-methyl-4-(2-((1-(methyl-sulfonyl)piperidin-4-yl)amino)-5-(trifluoromethyl)-pyrimidin-4-yl)-1H-imidazol-1-yl)phenyl)(methyl)-amino)ethan-1-ol]
Cc1cccc(-n2cnc(-c3nc(NC4CCN(S(C)(=O)=O)CC4)ncc3C(F)(F)F)c2)c1C#N [Example 61, 2-Methyl-6-(4-(2-((1-(methylsulfonyl)piperidin-4-yl)amino)-5-(trifluoromethyl)pyrimidin-4-yl)-1H-imidazol-1-yl)benzonitrile]
CS(=O)(=O)N1CC[C@H](Nc2ncc(C(F)(F)F)c(-c3cn(-c4ccc(C(F)(F)F)cc4C#N)cn3)n2)[C@H](F)C1 [Example 68, 2-(4-(2-(((3R,4S)-3-Fluoro-1-(methylsulfonyl)piperidin-4-yl)amino)-5-(trifluoromethyl)pyrimidin-4-yl)-1H-imidazol-1-yl)-5-(trifluoromethyl)benzonitrile]
CNC(C)c1ccc(-n2cnc(-c3nc(NC4CCN(S(C)(=O)=O)CC4)ncc3C(F)(F)F)c2)c(Cl)c1 (single isomer, unassigned) [Example 275, 4-(1-(2-Chloro-4-(1-(methylamino)ethyl)phenyl)-1H-imidazol-4-yl)-N-(1-(methylsulfonyl)piperidin-4-yl)-5-(trifluoromethyl)pyrimidin-2-amine]
CS(=O)(=O)N1CCC(Nc2ncc(C(F)(F)F)c(-c3cn(-c4ccccc4C#N)cn3)n2)CC1 [Example 31, 2-(4-(2-((1-(Methylsulfonyl)piperidin-4-yl)amino)-5-(trifluoromethyl)pyrimidin-4-yl)-1H-imidazol-1-yl)benzonitrile]
Cc1ccc(-n2cnc(-c3nc(N[C@H]4CCN(S(C)(=O)=O)C[C@H]4F)ncc3C(F)(F)F)c2)c(C#N)n1 [Example 51, 3-(4-(2-(((3R,4S)-3-Fluoro-1-(methylsulfonyl)piperidin-4-yl)amino)-5-(trifluoromethyl)pyrimidin-4-yl)-1H-imidazol-1-yl)-6-methylpicolinonitrile]
CS(=O)(=O)N1CCC(Nc2ncc(C(F)(F)F)c(-c3cn(-c4ccc(CN5CC(F)(F)C5)cc4Cl)cn3)n2)CC1 [Example 193, 4-(1-(2-Chloro-4-((3,3-difluoroazetidin-1-yl)methyl)phenyl)-1H-imidazol-4-yl)-N-(1-(methylsulfonyl)-piperidin-4-yl)-5-(trifluoromethyl)-pyrimidin-2-amine]
Cc1nc(-c2nc(NC3CCN(S(C)(=O)=O)CC3)ncc2C(F)(F)F)cn1-c1ccc(C2CN(C[C@H](C)O)C2)cc1F [Example 419, (S)-1-(3-(3-Fluoro-4-(2-methyl-4-(2-((1-(methylsulfonyl)piperidin-4-yl)amino)-5-(trifluoromethyl)pyrimidin-4-yl)-1H-imidazol-1-yl)phenyl)azetidin-1-yl)propan-2-ol]
O=S(=O)(NC1CC1)N1CCC(Nc2ncc(C(F)(F)F)c(-c3cn(-c4ccc(CN5CCC5)cc4Cl)cn3)n2)CC1 [Example 230, 4-((4-(1-(4-(Azetidin-1-ylmethyl)-2-chlorophenyl)-1H-imidazol-4-yl)-5-(trifluoromethyl)pyrimidin-2-yl)amino)-N-cyclopropylpiperidine-1-sulfonamide]
Cc1nc(CN2CC(C)C2)ccc1-n1cnc(-c2nc(NC3CCN(S(C)(=O)=O)CC3)ncc2C(F)(F)F)c1 [Example 264, 4-(1-(2-Methyl-6-((3-methylazetidin-1-yl)methyl)pyridin-3-yl)-1H-imidazol-4-yl)-N-(1-(methylsulfonyl)piperidin-4-yl)-5-(trifluoromethyl)pyrimidin-2-amine]
CCN(C)CCOc1ccc(-n2cnc(-c3nc(NC4CCN(S(C)(=O)=O)CC4)ncc3C(F)(F)F)c2)c(C#N)n1 [Example 76, 6-(2-(Ethyl(methyl)amino)ethoxy)-3-(4-(2-((1-(methylsulfonyl)piperidin-4-yl)amino)-5-(trifluoromethyl)pyrimidin-4-yl)-1H-imidazol-1-yl)picolinonitrile]
Cc1cc(CNCC(F)F)ccc1-n1cnc(-c2nc(NC3CCN(S(C)(=O)=O)CC3)ncc2C(F)(F)F)c1 [Example 450, 4-(1-(4-(((2,2-Difluoroethyl)amino)methyl)-2-methylphenyl)-1H-imidazol-4-yl)-N-(1-(methylsulfonyl)piperidin-4-yl)-5-(trifluoromethyl)pyrimidin-2-amine]
CNCCc1cccc(-n2cnc(-c3nc(NC4CCN(S(C)(=O)=O)CC4)ncc3C(F)(F)F)c2)c1Cl [Example 467, 4-(1-(2-Chloro-3-(2-(methylamino)ethyl)phenyl)-1H-imidazol-4-yl)-N-(1-(methylsulfonyl)piperidin-4-yl)-5-(trifluoromethyl)pyrimidin-2-amine]
Cc1nc(-c2nc(NC3CCN(S(C)(=O)=O)CC3)ncc2C(F)(F)F)cn1-c1ccc(N[C@@H]2CCCN(C)C2)cc1F [Example 117]
O=S(=O)(C1CC1)N1CCC(Nc2ncc(C(F)(F)F)c(-c3cn(CC(F)F)cn3)n2)CC1 [Example 29, N-(1-(Cyclopropylsulfonyl)piperidin-4-yl)-4-(1-(2,2-difluoroethyl)-1H-imidazol-4-yl)-5-(trifluoromethyl)pyrimidin-2-amine]
CS(=O)(=O)N1CCC(Nc2ncc(C(F)(F)F)c(-c3cn(-c4cccc(C#N)c4CO)cn3)n2)CC1 [Example 232, 2-(Hydroxymethyl)-3-(4-(2-((1-(methylsulfonyl)piperidin-4-yl)amino)-5-(trifluoromethyl)pyrimidin-4-yl)-1H-imidazol-1-yl)benzonitrile]
COc1ccc(-n2cnc(-c3nc(NC4CCN(S(C)(=O)=O)CC4)ncc3C(F)(F)F)c2)c(Cl)c1 [Example 151, 4-(1-(2-Chloro-4-methoxyphenyl)-1H-imidazol-4-yl)-N-(1-(methylsulfonyl)piperidin-4-yl)-5-(trifluoromethyl)pyrimidin-2-amine]
CC(c1cccc(-n2cnc(-c3nc(NC4CCN(S(C)(=O)=O)CC4)ncc3C(F)(F)F)c2)c1Cl)N(C)C (centres unmarked) [Example 376, 4-(1-(2-Chloro-3-(1-(dimethylamino)ethyl)phe-nyl)-1H-imidazol-4-yl)-N-(1-(methylsulfonyl)piperidin-4-yl)-5-(trifluoromethyl)pyrimi-din-2-amine]
CS(=O)(=O)N1CCC(Nc2ncc(C(F)(F)F)c(-c3cn(-c4cccc(CNC5CCOCC5)c4Cl)cn3)n2)CC1 [Example 368, 4-(1-(2-Chloro-3-(((tetrahydro-2H-pyran-4-yl)amino)methyl)phenyl)-1H-imidazol-4-yl)-N-(1-(methylsulfonyl)piperidin-4-yl)-5-(trifluoromethyl)pyrimi-din-2-amine]
C[C@]1(O)CCN(Cc2ccc(-n3cnc(-c4nc(N[C@H]5CCN(S(C)(=O)=O)C[C@H]5F)ncc4C(F)(F)F)c3)c(Cl)c2)C1 [Example 412, (S)-1-(3-Chloro-4-(4-(2-(((3R,4S)-3-fluoro-1-(methylsulfonyl)piperidin-4-yl)amino)-5-(trifluoromethyl)pyrimidin-4-yl)-1H-imidazol-1-yl)benzyl)-3-methylpyrrolidin-3-ol]
CN1CCN(Cc2ccc(-n3cnc(-c4nc(NC5CCN(S(C)(=O)=O)CC5)ncc4C(F)(F)F)c3)c(Cl)c2)C(=O)C1 [Example 451, 1-(3-Chloro-4-(4-(2-((1-(methylsulfonyl)piperidin-4-yl)amino)-5-(trifluoromethyl)pyrimidin-4-yl)-1H-imidazol-1-yl)benzyl)-4-methylpiperazin-2-one]
